Blank lines part the entries; values can stand above or below the compound they belong to.
How the values were obtained:
[1] = test system: Human immunodeficiency virus 1; test: Binding affinity to HIV1 TAR RNA assessed as increase in melting temperature
[2] = test system: Human immunodeficiency virus 1; test: Antiviral activity against HIV1 infected in human MT2 cells assessed as inhibition of virus proliferation at 9 uM relative to control; type: functional; settings: Human immunodeficiency virus 1, MT2
[3] = Binding affinity to HCV promoter RNA by NMR-based fragment screening assay; parameters: species or system Hepacivirus hominis
[4] = Binding affinity to Stem loop 3 RNA in HIV1 infected in HEK293T cells assessed as reduction in SL3-Gag interaction by measuring inhibition of RNA incorporation into virions; type: cell-based; settings: Human immunodeficiency virus 1, HEK-293T
[5] = Inhibition of miR-96 hairpin RNA precursor (unknown origin)
[6] = Binding affinity to HIV1 TAR RNA; parameters: species or system Human immunodeficiency virus 1
[7] = test system: Human immunodeficiency virus 1; test: Antiviral activity against HIV1 NL4-3 infected in human MAGIC-5B cells assessed as inhibition of virus proliferation; type: functional, organism-based; settings: Human immunodeficiency virus 1, NL4-3
[8] = Binding affinity to r(CGG)12 repeat RNA (unknown origin) assessed as reduction in r(CGG)12-[…] interaction
[9] = test system: Human immunodeficiency virus 1; test: Binding affinity to HIV1 TAR RNA in HIV1 NL4-3 infected human TZM-bl cells assessed as inhibition of Tat-mediated activation relative to control; settings: concentration not given here
[10] = test system: Human immunodeficiency virus 1; test: Antiviral activity against HIV1 NL4-3 infected human TZM-bl cells assessed as reduction in viral replication; type: functional, organism-based; settings: Human immunodeficiency virus 1, NL4-3, TZM-bl
[11] = test system: Human immunodeficiency virus 1; test: Antiviral activity against HIV1 assessed as reduction in viral replication by cell based assay; type: functional, organism-based
[12] = Binding affinity to r(CUG) repeat RNA (unknown origin)
[13] = Binding affinity to r(CUG) repeat RNA (unknown origin) assessed as reduction in r(CUG)-MBNL1 interaction
[14] = target: Rev responsive element (RRE) RNA; test: Binding affinity to HIV1 RRE RNA assessed as reduction in binding of tritiated RRE RNA to biotinylated Rev protein by high-throughput scintillation proximity assay; type: nucleic-acid assay, Human immunodeficiency virus 1
[15] = test system: Human immunodeficiency virus 1; test: Antiviral activity against HIV1 infected in human CEM-SS cells assessed as inhibition of virus proliferation; type: functional, organism-based; settings: Human immunodeficiency virus 1, CEM-SS

ΔTm [1]: < 10 °C
Structure (SMILES): NC[C@H]1O[C@@H](O[C@H]2[C@H](O[C@@H]3O[C@H](Cn4cc(-c5ccc(-c6cn(C[C@H]7O[C@@H](O[C@@H]8[C@@H](O)[C@H](N)C[C@H](N)[C@H]8O[C@@H]8O[C@H](CN)[C@@H](O)[C@H](O)[C@H]8N)[C@H](O)[C@@H]7O[C@@H]7O[C@H](CN)[C@@H](O)[C@H](O)[C@H]7N)nn6)cc5)nn4)[C@@H](O[C@@H]4O[C@H](CN)[C@@H](O)[C@H](O)[C@H]4N)[C@H]3O)[C@@H](O)[C@H](N)C[C@@H]2N)[C@H](N)[C@@H](O)[C@@H]1O
inhibition at 9 µM [2]: 70%

Kd [3]: 50.5 µM
Structure (SMILES): COc1cc2nc(N3CCNCC3)nc(N)c2cc1OC [AMINODIMETHOXYQUINAZOLINYLPIPERAZINE]

IC50 [4]: 4.5 µM
Structure (SMILES): CN1CC/C(=N\c2ccc(C(=O)Nc3ccc(N=c4ccn(C)cc4)cc3)cc2)c2cc([N+](=O)[O-])ccc21

IC50 [5]: 50 nM
Structure (SMILES): CCCN(CC(=O)N(CCC)CC(=O)N(CC(N)=O)Cc1cn(CCCNC(=O)CCCOc2c(C(C)(C)C)cc(-c3nc4cc(N5CCN(C)CC5)ccc4[nH]3)cc2C(C)(C)C)nn1)C(=O)CCCOc1cccc(-c2nc3ccc(-c4nc5ccc(N6CCN(C)CC6)cc5[nH]4)cc3[nH]2)c1

Kd [6]: 17500 nM
Structure (SMILES): CC(=O)Nc1nc(-c2cccc(NC(=O)[C@H](N)Cc3c[nH]cn3)c2)cs1
IC50 [7]: 410 nM

Structure (SMILES): Cc1c2cc[n+](CCN3CCCCC3)cc2c(C)c2c1[nH]c1ccc(O)cc12
IC50 [8]: 12 µM

Kd [6]: 1350 nM
inhibition [9]: 81%
IC50 [10]: 23.1 µM
Structure (SMILES): CCN[C@@H]1C[C@H](N)[C@@H](O[C@H]2OC(CN)=CC[C@H]2N)[C@H](O)[C@H]1O[C@H]1OC[C@](C)(O)[C@H](NC)[C@H]1O [NETILMICIN]

EC50 ([11]; read-out: EC50): 830 nM
Structure (SMILES): CN(C)CCOc1cc2c(c3ccccc13)-c1ccccc1C2=O

Kd [12]: 5.2 nM
IC50 [13]: 15 µM
Structure (SMILES): COc1ccc2nc3cc(Cl)ccc3c(NCCCCNc3nc(N)nc(N)n3)c2c1

EC50 [11]: 4300 nM
IC50 [14]: 3.7 µM
Structure (SMILES): CCN(CC)CCOc1ccc(/C(=C(/Cl)c2ccccc2)c2ccccc2)cc1 [ENCLOMIPHENE]

Kd [6]: 2400 nM
Structure (SMILES): Cc1ccc2c(N)c(C(=O)Nc3cccc(C(F)(F)F)c3)sc2n1
EC50 [15]: 28 µM

Kd [12]: 70 nM
Structure (SMILES): Nc1cccc(-c2nc3cc(-c4ccc5[nH]c(-c6cccc(N)c6)nc5c4)ccc3[nH]2)c1
